Measured values as given in patent US8993611B2, “Family of polyamine arylethylamide compounds, and their cosmetic or dermocosmetic use” (Exsymol, priority 2012, dated 2015).
Where two headings read alike, the source gives them in different places.

Assays:
[1] = tested on: Salmonella typhimurium (TA 100); test: Test 3: detoxification of the reference glycotoxin methyl-glyoxal (MGO), Ames pre-incubation test; type: cell-based
Method: […] The resulting mixture was incubated 30 minutes at 37° C. under orbital stirring (122 rpm).
(§1) The counting of colonies was then achieved manually.
In addition to the N-((4-imidazolyl)ethyl)-α, β-diaminopropanamide compound, the following compounds according to the invention were also tested at different concentrations: • N-((4-hydroxyphenyl)ethyl)-α,β-diaminopropanamide • N-((4-imidazolyl)ethyl)-α,γ-diaminobutanamide • N-((3,4-dihydroxyphenyl)ethyl)-α,β-diaminopropanamide • N-((4-imidazolyl)ethyl)-L-lysinamide
The results are gathered in table 3 below, compared to the PBS phosphate buffer (negative control).

[2] = tested on: purified histones, enriched with H1 histones; test: Test 1: protection of histones towards methyl-glyoxal (MGO), fluorimetry of the dialyzed mixture; type: biochemical; conditions: for RFU (fluorescence of dialyzed mixture, indicative of histone damage by MGO): compound 10 mM + histones + MGO 10 mM, 24 h at 37° C., excitation 340 nm, emission 470 nm, control histones + MGO 62231; for formation of non-enzymatic glycosylation products from reaction of glycotoxin with histones: result in words
Method: A solution of purified histones (5 mg/l), enriched with H1 histones, was incubated in the presence of the reference glycotoxin MGO (10 mM) during 24 h at 37° C. under stirring. In order to follow specifically fluorescence of products from non-enzymatic glycosylation of histones, it was necessary to get rid of MGO fluorescence as well as the one of the glycotoxin-trapper products. For this, the reaction mixture was dialyzed. Then it was introduced in a dialysis tape and three successive 3 hour-baths were run, each one in a NaH2PO4 buffer solution (83.3 mM) in which MGO was diluted. Dialyzed mixture fluorescence which was indicative of the damage of histones made by reaction with MGO (adduct formation) was measured by fluorimetry (λ excitation: 340 nm; λ emission: 470 nm). The measure unit corresponds to RFU (for “Relative Fluorescence Unit”).

[3] = tested on: Salmonella typhimurium (TA 100); test: Test 2: detoxification of glycotoxins released by fructosylated casein, Ames pre-incubation test without metabolic activator; type: cell-based; conditions: for Number of revertants: TA 100, PBS control 84
Text: The study was achieved on a Salmonella typhimurium (TA 100) bacterial strain which belongs to reference strains used for the Ames regulatory test (ICH steering committee, Jul. 19, 1995, Guidance on specific aspect of regulatory genotoxicity tests for pharmaceuticals). The objective was to determine, in the mutated strains' colonies, the number of revertant colonies which are representative of mutagenesis in casein-fructose system, with or without a compound according to the invention.
Experimentally, 2.7 g of D-(+)-fructose were solubilized at room temperature in 100 mL of phosphate buffer. After collecting 20 g of the colourless limpid solution (Cfructose=150 mM), 0.600 g of sodium caseinate were introduced until complete dissolution. The solution was then introduced in 2×10mL in screw-top test tubes, then placed in an oil bath at 120° C. during 1 h.
To different concentrations (400 μl) of compound according to the invention were successively added 500 μl of glycated casein and 100 μl of the above-mentioned bacterial suspension. The resulting mixture was incubated 30 minutes at 37° C. under orbital stirring (122 rpm).
as §1
The results are presented in table 2 below, compared to a negative control (PBS phosphate buffer).

[4] = tested on: Salmonella typhimurium (TA 100); conditions: positive control; PBS control 88
Method: The study was carried out according to an almost-identical manner to the here-above test 2, with however D-glucose replacing D-(+)-fructose and according to following conditions. Experimentally, 18.02 g of D-glucose were solubilized at room temperature in 100 mL of water. 10 mL of the solution corresponding to 10 mM of the compound according to the invention, N-((4-imidazolyl)ethyl)-α,β-diamino-propanamide, were sampled and introduced after a pH adjustment by sodium hydroxide. The resulting reaction mixture was then introduced in a screw-top test tube, then heated at 100° C. for 80 minutes.
In parallel, the TA 100 strain was cultured in the Nutrient Broth Oxoid N° 2 (NBO2) supplemented with Ampicilline. The culture was placed overnight at 37° C. in an orbital shaker (88 rpm) so that bacteria were in growth exponential phase (10^7 to 10^9 bacteria/ml).
100 μl of test solution were added to 100 μl of the above-mentioned bacterial suspension and to 500 μl of PBS phosphate buffer, the resulting mixture being incubated 1 h at 37° C. under orbital stirring (122 rpm). 2 ml of soft-agar supplemented in biotin histidine and maintained at 45° C. were added. After mixing with Vortex, they were deposited in a Petri dish containing Vogel-Bonner hard-agar. After solidification, dishes were transferred in the incubator at 37° C. during 48-72 h. […]

[5] = compound 75 μM + methyl-glyoxal 140 μM, PBS control 91, MGO alone 161
[6] = compound 750 μM + methyl-glyoxal 140 μM, PBS control 91, MGO alone 161

NCCCC[C@H](N)C(=O)NCCc1c[nH]cn1 [N-((4-imidazolyl)ethyl)-L-lysinamide]
Number of revertants [1, 5]: 141 | Number of revertants [1, 6]: 132

CC(=O)C=O [Methyl-glyoxal, methyl-glyoxal, reference compound]
Number of revertants ([1]; methyl-glyoxal alone 140 μM, PBS control 91): 161 | Number of revertants ([1]; methyl-glyoxal alone 280 μM, PBS control 72): 308

NCC(N)C(=O)NCCc1ccc(O)cc1 (stereo not drawn) [N-((4-hydroxyphenyl)ethyl)-α,β-diaminopropanamide]
Number of revertants [1, 5]: 152

NCCC(N)C(=O)NCCc1c[nH]cn1 (stereo not drawn) [N-((4-imidazolyl)ethyl)-α,γ-diaminobutanamide]
Number of revertants [1, 5]: 154 | Number of revertants [1, 6]: 116 | RFU (fluorescence of dialyzed mixture, indicative of histone damage by MGO) [2]: 21526 RFU | formation of non-enzymatic glycosylation products from reaction of glycotoxin with histones [2]: strongly decrease

NCC(N)C(=O)NCCc1c[nH]cn1 (stereo not drawn) [N-((4-imidazolyl)ethyl)-α,β-diaminopropanamide]
Number of revertants ([1]; compound 75 μM + methyl-glyoxal 280 μM, PBS control 72, MGO alone 308): 141 | Number of revertants ([1]; compound 750 μM + methyl-glyoxal 280 μM, PBS control 72, MGO alone 308): 95 | RFU ([3]; compound 7.5 mM + fructosylated casein, PBS control = 1): 1.42 RFU | Number of revertants ([3]; compound 7.5 mM + fructosylated casein): 119 | revertant count relative to PBS control ([3]; compound 15 mM + fructosylated casein, PBS control = 1): 1.11 RFU | Number of revertants ([3]; compound 15 mM + fructosylated casein): 93 | toxicity of the formed glycotoxins ([3]; result in words, dose-effect relationship observed): strongly decrease | RFU (fluorescence of dialyzed mixture, indicative of histone damage by MGO) [2]: 20441 RFU | formation of non-enzymatic glycosylation products from reaction of glycotoxin with histones [2]: strongly decrease

[N-]=[N+]=[N-] [NaN3, sodium azide]
Number of revertants [4]: 211

NCC(N)C(=O)NCCc1ccc(O)c(O)c1 (stereo not drawn) [N-((3,4-dihydroxyphenyl)ethyl)-α,β-diaminopropanamide]
Number of revertants [1, 5]: 161 | Number of revertants [1, 6]: 111
